Data from PubChem BioAssay AID328 (DTP/NCI, 2004).
Values joined by “and” are separate entries in the source; they are usually repeats but may differ in a detail not shown here. Identical values can stand only once. Inconclusive results and toxic doses are left out.

Test system: BDF1 mice, P388 leukemia ip, median survival T/C
Experiment: NCI In Vivo Anticancer Drug Screen. Data for tumor model P388 Leukemia (intraperitoneal) in B6D2F1 (BDF1) mice
Details: endpoint: median survival time, higher = longer survival
Procedure, shortened: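 T/C = treated-group survival ÷ vehicle-control survival; tumour transplanted into mice before dosing.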

[1] = dose: 50.0 mg/kg/injection, schedule: Q01DX009 (ip), vehicle: saline with Tween-80
[2] = dose: 100.0 mg/kg/injection, schedule: Q01DX009 (ip), vehicle: saline with Tween-80
[3] = dose: 50.0 mg/kg/injection, schedule: Q01DX005 (ip), vehicle: saline with Tween-80
[4] = dose: 100.0 mg/kg/injection, schedule: Q01DX005 (ip), vehicle: saline with Tween-80
[5] = dose: 200.0 mg/kg/injection, schedule: Q01DX005 (ip), vehicle: saline with Tween-80
[6] = dose: 100.0 mg/kg/injection, schedule: Q04DX003 (ip), vehicle: other
[7] = dose: 200.0 mg/kg/injection, schedule: Q01DX009 (ip), vehicle: saline with Tween-80
[8] = dose: 200.0 mg/kg/injection, schedule: Q04DX003 (ip), vehicle: Klucel (hydroxypropylcellulose) (HPC)
[9] = dose: 100.0 mg/kg/injection, schedule: Q01DX009 (ip), vehicle: Klucel (hydroxypropylcellulose) (HPC)
[10] = dose: 200.0 mg/kg/injection, schedule: Q01DX009 (ip), vehicle: Klucel (hydroxypropylcellulose) (HPC)
[11] = dose: 400.0 mg/kg/injection, schedule: Q01DX009 (ip), vehicle: Klucel (hydroxypropylcellulose) (HPC)
[12] = dose: 100.0 mg/kg/injection, schedule: Q04DX003 (ip), vehicle: Klucel (hydroxypropylcellulose) (HPC)
[13] = dose: 25.0 mg/kg/injection, schedule: Q01DX009 (ip), vehicle: saline with Tween-80

## C[CH2][Pb]([CH2]C)([CH2]C)[O]C(=O)c1ccc(N)cc1
dose: 0.75 mg/kg/injection, schedule: Q01DX009 (ip), vehicle: Klucel (hydroxypropylcellulose) (HPC)
  T/C: 100 % of control
dose: 1.5 mg/kg/injection, schedule: Q01DX009 (ip), vehicle: Klucel (hydroxypropylcellulose) (HPC)
  T/C: 110 % of control
dose: 1.56 mg/kg/injection, schedule: Q01DX009 (ip), vehicle: Klucel (hydroxypropylcellulose) (HPC)
  T/C: 111 % of control
dose: 3.0 mg/kg/injection, schedule: Q01DX009 (ip), vehicle: Klucel (hydroxypropylcellulose) (HPC)
  T/C: 110 % of control and 117 % of control
dose: 3.12 mg/kg/injection, schedule: Q01DX009 (ip), vehicle: Klucel (hydroxypropylcellulose) (HPC)
  T/C: 114 % of control and 119 % of control
dose: 6.0 mg/kg/injection, schedule: Q01DX009 (ip), vehicle: Klucel (hydroxypropylcellulose) (HPC)
  T/C: 119 % of control and 122 % of control
dose: 6.25 mg/kg/injection, schedule: Q01DX009 (ip), vehicle: Klucel (hydroxypropylcellulose) (HPC)
  T/C: 104 % of control
dose: 12.0 mg/kg/injection, schedule: Q01DX009 (ip), vehicle: Klucel (hydroxypropylcellulose) (HPC)
  T/C: 99 % of control
dose: 12.5 mg/kg/injection, schedule: Q01DX009 (ip), vehicle: Klucel (hydroxypropylcellulose) (HPC)
  T/C: 93 % of control and 106 % of control

## O=C(c1ccc(C(=O)N2CC2)cc1)N1CC1
dose: 5.0 mg/kg/injection, schedule: Q01DX009 (ip), vehicle: saline with Tween-80
  T/C: 95 % of control
dose: 20.0 mg/kg/injection, schedule: Q01DX009 (ip), vehicle: saline with Tween-80
  T/C: 109 % of control

## CCS(=O)(=O)C(N=Nc1ccccc1)S(=O)(=O)CC
dose: 20.0 mg/kg/injection, schedule: Q01DX009 (ip), vehicle: Klucel (hydroxypropylcellulose) (HPC)
  T/C: 107 % of control
dose: 40.0 mg/kg/injection, schedule: Q01DX009 (ip), vehicle: Klucel (hydroxypropylcellulose) (HPC)
  T/C: 101 % of control
dose: 80.0 mg/kg/injection, schedule: Q01DX009 (ip), vehicle: Klucel (hydroxypropylcellulose) (HPC)
  T/C: 107 % of control

## O=S1(=O)CCCO1
[1]
  T/C: 95 % of control
[2]
  T/C: 113 % of control

## N#Cc1c(O)oc2cccnc12
[3]
  T/C: 92 % of control
[4]
  T/C: 97 % of control
[5]
  T/C: 103 % of control

## ClC1=C(Cl)C2(Cl)C(Br)C(Br)C1(Cl)C2(Cl)Cl (stereo unspecified)
dose: 25.0 mg/kg/injection, schedule: Q04DX003 (ip), vehicle: other
  T/C: 118 % of control
dose: 50.0 mg/kg/injection, schedule: Q04DX003 (ip), vehicle: other
  T/C: 109 % of control
[2]
  T/C: 90 % of control
[6]
  T/C: 100 % of control and 104 % of control
[7]
  T/C: 100 % of control
[8]
  T/C: 90 % of control
dose: 400.0 mg/kg/injection, schedule: Q01DX009 (ip), vehicle: saline with Tween-80
  T/C: 110 % of control
dose: 400.0 mg/kg/injection, schedule: Q04DX003 (ip), vehicle: other
  T/C: 100 % of control

## COc1cc(/C(C)=N\O)ccc1O
dose: 100.0 mg/kg/injection, schedule: Q01DX001 (ip), vehicle: other
  T/C: 100 % of control
dose: 200.0 mg/kg/injection, schedule: Q01DX001 (ip), vehicle: other
  T/C: 100 % of control
dose: 400.0 mg/kg/injection, schedule: Q01DX001 (ip), vehicle: other
  T/C: 100 % of control

## Nc1ncnc2c1ncn2C1(CO)OC(CO)C(O)C1O (stereo unspecified)
[9]
  T/C: 106 % of control
[10]
  T/C: 115 % of control
[11]
  T/C: 103 % of control

## O=C1CN(Cc2ccccc2)CC(=O)N2CCCN12
[3]
  T/C: 101 % of control
[4]
  T/C: 90 % of control
[5]
  T/C: 92 % of control

## CCOC(=S)SCC(=O)Nc1ccc(S(N)(=O)=O)cc1
dose: 15.0 mg/kg/injection, schedule: Q01DX009 (ip), vehicle: saline with Tween-80
  T/C: 95 % of control
dose: 30.0 mg/kg/injection, schedule: Q01DX009 (ip), vehicle: saline with Tween-80
  T/C: 104 % of control
dose: 60.0 mg/kg/injection, schedule: Q01DX009 (ip), vehicle: saline with Tween-80
  T/C: 113 % of control

## CN(C)c1ccc(/C=C\c2cc(/C=C/c3ccc(N(C)C)cc3)nc3ccccc23)cc1
[1]
  T/C: 103 % of control
[2]
  T/C: 116 % of control
[7]
  T/C: 120 % of control

## O=C(O)c1ccc(NS(=O)(=O)Cc2ccccc2)cc1
[9]
  T/C: 123 % of control
[10]
  T/C: 123 % of control
[11]
  T/C: 123 % of control

## COc1cc(C=Nc2cccc(C(F)(F)F)c2)ccc1O
[12]
  T/C: 95 % of control
[8]
  T/C: 100 % of control

## CC(=O)n1cc(F)c(=O)[nH]c1=O
dose: 0.57 mg/kg/injection, schedule: Q01DX009 (ip), vehicle: saline
  T/C: 116 % of control
dose: 0.99 mg/kg/injection, schedule: Q01DX009 (ip), vehicle: saline
  T/C: 113 % of control
dose: 1.3 mg/kg/injection, schedule: Q01DX009 (ip), vehicle: saline
  T/C: 122 % of control
dose: 2.0 mg/kg/injection, schedule: Q01DX009 (ip), vehicle: saline
  T/C: 165 % of control
dose: 3.12 mg/kg/injection, schedule: Q01DX009 (ip), vehicle: saline with Tween-80
  T/C: 150 % of control
dose: 5.0 mg/kg/injection, schedule: Q04DX003 (ip), vehicle: saline
  T/C: 122 % of control
dose: 6.25 mg/kg/injection, schedule: Q01DX009 (ip), vehicle: saline with Tween-80
  T/C: 160 % of control and 165 % of control
dose: 7.2 mg/kg/injection, schedule: Q01DX009 (ip), vehicle: saline with Tween-80
  T/C: 166 % of control
dose: 12.5 mg/kg/injection, schedule: Q01DX009 (ip), vehicle: saline with Tween-80
  T/C: 178 % of control and 215 % of control
[13]
  T/C: 235 % of control and 195 % of control
dose: 25.0 mg/kg/injection, schedule: Q04DX003 (ip), vehicle: saline
  T/C: 122 % of control
[1]
  T/C: 86 % of control
dose: 50.0 mg/kg/injection, schedule: Q04DX003 (ip), vehicle: saline with Tween-80
  T/C: 155 % of control
dose: 50.0 mg/kg/injection, schedule: Q04DX003 (ip), vehicle: saline
  T/C: 150 % of control
[6]
  T/C: 108 % of control
dose: 100.0 mg/kg/injection, schedule: Q04DX003 (ip), vehicle: saline
  T/C: 181 % of control
dose: 150.0 mg/kg/injection, schedule: Q04DX003 (ip), vehicle: other
  T/C: 100 % of control
dose: 400.0 mg/kg/injection, schedule: Q04DX003 (ip), vehicle: saline with Tween-80
  T/C: 90 % of control

## CC(=O)C(O)c1c(O)cc(C)[nH]c1=O (stereo unspecified)
[1]
  T/C: 100 % of control
[2]
  T/C: 97 % of control
[7]
  T/C: 98 % of control

## ClC(Cl)(Cl)C(N1CCN(c2ccccc2)CC1)N1CCN(c2ccccc2)CC1
[1]
  T/C: 104 % of control
[2]
  T/C: 100 % of control
[7]
  T/C: 95 % of control

## CCCN(CCC)c1ccc(C=O)cc1
dose: 50.0 mg/kg/injection, schedule: Q04DX003 (ip), vehicle: Klucel (hydroxypropylcellulose) (HPC)
  T/C: 100 % of control
[12]
  T/C: 105 % of control
[8]
  T/C: 94 % of control

## O=c1cc(-c2cccs2)ss1
[13]
  T/C: 106 % of control
[1]
  T/C: 97 % of control
[2]
  T/C: 86 % of control and 106 % of control
dose: 100.0 mg/kg/injection, schedule: Q04DX003 (ip), vehicle: saline with Tween-80
  T/C: 106 % of control
[7]
  T/C: 116 % of control
dose: 200.0 mg/kg/injection, schedule: Q04DX003 (ip), vehicle: saline with Tween-80
  T/C: 92 % of control

## CCCCCCCCCCCC[N+](C)(C)C (tested in a mixture with another compound)
dose: 9.2 mg/kg/injection, schedule: Q01DX009 (ip), vehicle: saline
  T/C: 107 % of control
